Data: patent publication US20250057969A1, “CONJUGATES COMPRISING CLEAVABLE LINKERS” (priority 2023, published 2025)
Numbered stars: 1 amine (or outer) side, 2 acyl side, 3 side chain; on linkers, the order of the positions; unused ones are H or OH. Square brackets hold non-standard residues; d marks the D form. Peptide text beside a SMILES is read from it. * marks the point of attachment. X1 = O=C(O)[C@H]1O[C@@H](Oc2ccc(COC(=O)[*:2])cc2N[*:1])[C@H](O)[C@@H](O)[C@@H]1O; CH3O(CH2CH2O)11CH2CH2CO = COCCOCCOCCOCCOCCOCCOCCOCCOCCOCCOCCOCCC(=O)*; Dolaproine = CO[C@@H]([C@@H]1CCCN1)[C@@H](C)C(=O)O; Hexanoyl(6-maleimido) = O=C1C=CC(=O)N1CCCCCC(=O)*; Propanoyl(3-maleimido) = O=C1C=CC(=O)N1CCC(=O)*; Dil = CC[C@H](C)[C@H](NC)[C@@H](CC(=O)O)OC; PABC = O=C(OCc1ccc(N[*:1])cc1)[*:2]; X2 = C[C@@H](N*)[C@@H](O)c1ccccc1; Cit = NC(=O)NCCC[C@H](N)C(=O)O; NMeV = CN[C@H](C(=O)O)C(C)C; βAla = NCCC(=O)O

Key:
Assay type in all cases: biochemical
[1] = biological target: T1, Human neutrophil elastase (Homo sapiens, UniProt P08246); experiment: Linker-Payload enzymatic cleavage with human neutrophil elastase; details: 0.67 μM enzyme, 67 μM Linker-Payload, pH 7.4, 37° C., 24 hours
T1 sequence (P08246 30-267): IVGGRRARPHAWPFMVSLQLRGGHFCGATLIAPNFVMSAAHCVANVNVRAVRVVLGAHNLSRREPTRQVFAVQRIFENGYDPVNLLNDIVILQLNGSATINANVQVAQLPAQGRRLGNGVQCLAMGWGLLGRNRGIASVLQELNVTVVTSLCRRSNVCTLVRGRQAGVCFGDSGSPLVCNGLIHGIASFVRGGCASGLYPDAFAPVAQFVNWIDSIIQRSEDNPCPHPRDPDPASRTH
Procedure: (§1) 0.67 μM Human neutrophil elastase was added to 67 μM Linker-Payload (1:100) in Tris Buffered Saline, pH 7.4. The mixture was incubated at 37° C. for a duration of 24 hours with intermediate timepoints collected and diluted 1:1 with buffer containing acetonitrile, water and formic acid. The sample was measured by reverse-phase HPLC with data quantified against a standard curve.

Cathepsin B = Cathepsin B (Homo sapiens, UniProt P07858); experiment: Linker-Payload enzymatic cleavage with Cathepsin B; details: 0.14 μM enzyme, 70 μM Linker-Payload, pH 5.0, 37° C., 24 hours
Procedure: as §1, with “0.14” for “0.67”, “Cathepsin B” for “Human neutrophil elastase”, “70” for “67”, “(1:500)” for “(1:100)”, “50 mM sodium acetate, 1 mM DTT,” for “Tris Buffered Saline,”, “5.0.” for “7.4.”

β-glucuronidase = biological target: T2, β-glucuronidase (Homo sapiens, UniProt P08236); experiment: Linker-Payload enzymatic cleavage with β-glucuronidase; details: 4 nM enzyme, 40 μM Linker-Payload, pH 5.0, 37° C., 24 hours
T2 sequence (P08236 23-651): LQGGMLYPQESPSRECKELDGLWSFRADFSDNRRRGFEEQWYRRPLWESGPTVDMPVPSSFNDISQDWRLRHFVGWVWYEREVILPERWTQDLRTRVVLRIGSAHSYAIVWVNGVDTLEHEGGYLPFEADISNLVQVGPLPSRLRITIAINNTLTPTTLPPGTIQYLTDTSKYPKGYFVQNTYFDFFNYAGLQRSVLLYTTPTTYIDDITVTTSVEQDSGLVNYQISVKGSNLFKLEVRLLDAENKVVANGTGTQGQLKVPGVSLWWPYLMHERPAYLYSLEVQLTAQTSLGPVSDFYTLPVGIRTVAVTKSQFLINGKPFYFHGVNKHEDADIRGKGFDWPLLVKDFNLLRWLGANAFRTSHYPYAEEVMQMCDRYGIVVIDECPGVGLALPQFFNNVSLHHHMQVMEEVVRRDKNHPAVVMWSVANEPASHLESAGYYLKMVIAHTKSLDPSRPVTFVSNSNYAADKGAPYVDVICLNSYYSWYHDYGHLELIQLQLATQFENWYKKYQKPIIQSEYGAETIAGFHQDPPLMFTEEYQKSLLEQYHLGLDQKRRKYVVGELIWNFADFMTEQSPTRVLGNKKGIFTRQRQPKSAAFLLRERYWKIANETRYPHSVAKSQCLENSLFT
Procedure: as §1, with “4 nM β-glucuronidase” for “0.67 μM Human neutrophil elastase”, “40” for “67”, “(1:10,000)” for “(1:100)”, “50 mM sodium acetate,” for “Tris Buffered Saline,”, “5.0.” for “7.4.”

Structure (SMILES) | cleavage in the presence of human neutrophil elastase (FIG. 1D) [1] | cleavage in the presence of human neutrophil elastase (FIG. 1C) [1] | cleavage in the presence of cathepsin B (FIG. 1B) (Cathepsin B) | cleavage in the presence of β-glucuronidase (FIG. 1A) (β-glucuronidase) | cleavage rate in the presence of β-glucuronidase relative to LP7 and LP8 (FIG. 1E) (β-glucuronidase)
CC[C@H](C)[C@@H]([C@@H](CC(=O)N1CCC[C@H]1[C@H](OC)[C@@H](C)C(=O)N[C@H](C)[C@@H](O)c1ccccc1)OC)N(C)C(=O)[C@@H](NC(=O)[C@H](C(C)C)N(C)C(=O)OCc1ccc(O[C@@H]2O[C@H](C(=O)O)[C@@H](O)[C@H](O)[C@H]2O)c(CNC(=O)CCNC(=O)[C@H](CCCCNC(=O)CCOCCOCCOCCOCCOCCOCCOCCOCCOCCOCCOCCOC)NC(=O)CCN2C(=O)C=CC2=O)c1)C(C)C [LP7, reference compound] | did not undergo rapid cleavage |  |  |  | 
CC[C@H](C)[C@@H]([C@@H](CC(=O)N1CCC[C@H]1[C@H](OC)[C@@H](C)C(=O)N[C@H](C)[C@@H](O)c1ccccc1)OC)N(C)C(=O)[C@@H](NC(=O)[C@H](C(C)C)N(C)C(=O)OCc1ccc(O[C@@H]2O[C@H](C(=O)O)[C@@H](O)[C@H](O)[C@H]2O)c(CNC(=O)COC2(CNC(=O)CCN3C(=O)C=CC3=O)CN(C(=O)CCOCCOCCOCCOCCOCCOCCOCCOCCOCCOCCOCCOC)C2)c1)C(C)C [LP3] |  | did not undergo rapid cleavage | neither LP2 nor LP3 underwent rapid cleavage | underwent significant cleavage | 
CC[C@H](C)[C@@H]([C@@H](CC(=O)N1CCC[C@H]1[C@H](OC)[C@@H](C)C(=O)N[C@H](C)[C@@H](O)c1ccccc1)OC)N(C)C(=O)[C@@H](NC(=O)[C@H](C(C)C)N(C)C(=O)OCc1ccc(NC(=O)[C@H](CCCNC(N)=O)NC(=O)[C@@H](NC(=O)CCCCCN2C(=O)C=CC2=O)C(C)C)cc1)C(C)C [LP1, maleimidocaproyl-valine-citrulline-p-amrninobenzoyloxycajrbonyl-MMAE, reference compound] ({Hexanoyl(6-maleimido)}-V[Cit][PABC][NMeV]V[Dil][Dolaproine]-X2) |  | underwent more rapid cleavage |  |  | 
CC[C@H](C)[C@@H]([C@@H](CC(=O)N1CCC[C@H]1[C@H](OC)[C@@H](C)C(=O)N[C@H](C)[C@@H](O)c1ccccc1)OC)N(C)C(=O)[C@@H](NC(=O)[C@H](C(C)C)N(C)C(=O)OCc1ccc(O[C@@H]2O[C@H](C(=O)O)[C@@H](O)[C@H](O)[C@H]2O)c(NC(=O)CCNC(=O)[C@H](CCCCNC(=O)CCOCCOCCOCCOCCOCCOCCOCCOCCOCCOCCOCCOC)NC(=O)CCN2C(=O)C=CC2=O)c1)C(C)C [LP8, reference compound] ({Propanoyl(3-maleimido)}-K(CH3O(CH2CH2O)11CH2CH2CO)[βAla][X1][NMeV]V[Dil][Dolaproine]-X2) | did not undergo rapid cleavage |  |  |  | 
CC[C@H](C)[C@@H]([C@@H](CC(=O)N1CCC[C@H]1[C@H](OC)[C@@H](C)C(=O)N[C@H](C)[C@@H](O)c1ccccc1)OC)N(C)C(=O)[C@@H](NC(=O)[C@H](C(C)C)N(C)C(=O)OCc1ccc(O[C@@H]2O[C@H](C(=O)O)[C@@H](O)[C@H](O)[C@H]2O)c(CNC(=O)CCNC(=O)COC2(CNC(=O)CCN3C(=O)C=CC3=O)CN(C(=O)CCOCCOCCOCCOCCOCCOCCOCCOCCOCCOCCOCCOC)C2)c1)C(C)C [LP2] | did not undergo rapid cleavage | did not undergo rapid cleavage | neither LP2 nor LP3 underwent rapid cleavage | underwent significant cleavage | underwent slower cleavage than both LP7 (Reference) and LP8 (Reference)
